Test results taken from patent US10040804B2, “Compounds targeting proteins, compositions, methods, and uses thereof” (BioTheryX, Inc., priority 2016, dated 2018).

What was measured:
MDA-MB-231 cells = experiment: MDA-MB-231 cell viability (CellTiter-Glo); format: cell-based; conditions: Homo sapiens, 72 h, 3 days, DMSO = 100.00; for viability at 1 µM: 1 μM compound concentration; for viability at 10 µM: 10 μM compound concentration
Procedure: (§1) Molm-13 cells were cultivated in RPMI-1640 (10% FBS/1% pen-strep) and were plated in white walled 96-well plates at 20,000 cells/well. H1048 cells were cultured in DMEM:F12 media supplemented with 5% fetal bovine serum, insulin, transferrin, sodium selenite, hydrocortisone, β-estradiol, penicillin and streptomycin, and were plated in white walled 96-well plates at 20,000 cells/well. MDA-MB-231 cells were cultured in DMEM media supplemented with 10% fetal bovine serum, penicillin and streptomycin, and were plated in white walled 96-well plates at 10,000 cells/well. Cells were treated with compound or DMSO (0.1%, control) and the cultures were incubated for 3 days at 37° C. and 5% CO2. Following the incubation period, 100 μL of CellTiterGlow (CTG) reagent (CellTiter-Glo® Luminescent Cell Viability Assay, Promega (Madison, Wis.)) was added to each well. Following a 10 min incubation with shaking, luminescence was measured using a Victor Wallac Luminometer.

IL-1β = IL-1β expression in LPS stimulated PBMCs (Meso Scale); format: cell-based, human; conditions: Homo sapiens, PBMC; for inhibition at 0.1 µM: compound concentration 0.1 μM
Procedure: FIGS. 5 and 9A are graphs showing IL-1-beta expression in LPS stimulated peripheral blood mononuclear cells (PBMCs), PBMCs were plated in 96-well plates and pretreated with compound (Compound 1-9 individually) for 1 h, and then induced with 100 ng/mL LPS for 18-24 h. Cytokines in the media were measured according to MesoScale protocol. Negative control wells were treated with DMSO. Compound activity is measured as a percentage of LPS-induced activity. “Rev” is lenalidomide.
(§2) Frozen primary blood mononuclear cells (PBMCs) and frozen CD14+ mobilized peripheral blood monocytes were purchased from AllCells. Cells were quick thawed, and washed 1-time with RPMI-1640/10% FBS/1% Penicillin/1% Streptomycin and plated in 96-well plates at 200,000 cells per well. Cells were pretreated with DMSO only, Compound 5013 (lenolidamide) or the indicated compound for 1 h and then induced with 100 ng/mL lipopolysaccharide (LPS) for 18-24 h. The supernatant was analyzed for IL-1 beta, IL-6, and TNF-α using Meso Scale assay according to manufacturer's protocol. The negative control wells were treated with DMSO.
(§3) PBMCs: AllCells PB003F, Normal Peripheral Blood MNC.
(§4) Media: RPMI 1640/10% FBS/1% Pen-Strep.

GSPT1 = target: T1, GSPT1 (Homo sapiens, UniProt P15170); experiment: GSPT1 protein levels by Western Blot analysis; format: cell-based; conditions: DMSO = 100.00; for remaining activity at 0.1 µM: 100 nM compound concentration; for remaining activity at 1 µM: 1 μM compound concentration
T1 construct: Whole cell extracts were prepared using RIPA buffer according to manufacturer's protocol (Pierce); endogenous in cells
Procedure: Cells were lysed using RIPA Buffer (Pierce) and a Western Blot analysis was performed using anti-GSPT1 and anti-β-actin antibodies. FIG. 11B is a graph showing the expression levels of GSPT1 protein in Molm-13 (AML) cells. Protein expression levels were measured using the LiCor Odyssey instrumentation and methods.
Western Blot Protocol: Cell lines were grown in RPMI 1640 supplemented with streptomycin, penicillin and 10% fetal bovine serum.
Cells were cultured at approximately 10^6 cells per mL and incubated in DMSO or each of the indicated compounds for 6-8 h. Whole cell extracts were prepared using RIPA buffer according to manufacturer's protocol (Pierce). Briefly, 2×10^6 cells were washed once in PBS, the cell pellets were resuspended in RIPA buffer and allowed to incubate for 15 minutes on ice. Cells debris was removed by centrifugation and the cleared whole cell lysates were transferred to new tubes for further analysis.
For Western blot analysis, whole cell protein extracts were separated on 4-12% SDS-polyacrylamide gels, transferred to nitrocellulose, and probed with the indicated primary antibodies. Membranes were subsequently washed and probed with the appropriate IRDye secondary antibodies (LI-COR). The signal was detected using the Odyssey Imaging System (LI-COR).
GSPT1: Rabbit anti-GSPT1 was obtained from Abcam, ab126090 (Cambridge, Eng.)

H1048 cells = experiment: H1048 cell viability (CellTiter-Glo); format: cell-based; conditions: Homo sapiens, NCI-H1048, 72 h, H1048, 3 days, DMSO = 100.00; for viability at 1 µM: 1 μM compound concentration; for viability at 10 µM: 10 μM compound concentration
Procedure: (§5) FIG. 10A is a graph showing antiproliferative activity in H1048 (SCLC) cells. FIG. 10B is a graph showing antiproliferative activity in Molm-13 (AML) cells. In FIGS. 10A and 10B, the cells were incubated for 72 hrs with Compound 9 at the indicated concentrations or DMSO. Compound activity was measured based on the signal from remaining viable cells.
as §1

Molm-13 cells = experiment: Molm-13 cell viability (CellTiter-Glo); format: cell-based; conditions: Homo sapiens, MOLM-13, read-out: % Inhibition (MOLM-13 Cell Viability); for cytotoxicity at 0.1 µM: compound concentration 0.1 μM
Procedure: as §5, §1

TNF-α = TNF-α expression in LPS stimulated PBMCs (Meso Scale); format: cell-based, human; conditions: Homo sapiens, PBMC; for inhibition at 0.1 µM: compound concentration 0.1 μM
Procedure: FIGS. 7 and 9C are graphs showing TNF-a expression in LPS stimulated peripheral blood mononuclear cells (PBMCs). PBMCs were plated in 96-well plates and pretreated with compound (Compound 1-9 individually) for 1 h, and then induced with 100 ng/mL LPS for 18-24 h. Cytokines in the media were measured according to MesoScale protocol. The negative control wells were treated with DMSO. Compound activity is measured as a percentage of LPS-induced activity. “Rev” is lenalidomide.
as §2, §3, §4

IL-6 = IL-6 expression in LPS stimulated PBMCs (Meso Scale); format: cell-based, human; conditions: Homo sapiens, PBMC, LPS-stimulated PBMCs; for inhibition at 0.1 µM: compound concentration 0.1 μM
Procedure: FIGS. 6 and 9B are graphs showing IL-6 expression in LPS stimulated peripheral blood mononuclear cells (PBMCs). PBMCs were plated in 96-well plates and pretreated with compound (Compound 1-9 individually) for 1 h, and then induced with 100 ng/mL LPS for 18-24 h. Cytokines were measured according to MesoScale protocol. Negative control wells were treated with DMSO. Compound activity was measured as a percentage of LPS-induced activity. “Rev” is lenalidomide.
as §2, §3, §4

T1 sequence (P15170 whole entry): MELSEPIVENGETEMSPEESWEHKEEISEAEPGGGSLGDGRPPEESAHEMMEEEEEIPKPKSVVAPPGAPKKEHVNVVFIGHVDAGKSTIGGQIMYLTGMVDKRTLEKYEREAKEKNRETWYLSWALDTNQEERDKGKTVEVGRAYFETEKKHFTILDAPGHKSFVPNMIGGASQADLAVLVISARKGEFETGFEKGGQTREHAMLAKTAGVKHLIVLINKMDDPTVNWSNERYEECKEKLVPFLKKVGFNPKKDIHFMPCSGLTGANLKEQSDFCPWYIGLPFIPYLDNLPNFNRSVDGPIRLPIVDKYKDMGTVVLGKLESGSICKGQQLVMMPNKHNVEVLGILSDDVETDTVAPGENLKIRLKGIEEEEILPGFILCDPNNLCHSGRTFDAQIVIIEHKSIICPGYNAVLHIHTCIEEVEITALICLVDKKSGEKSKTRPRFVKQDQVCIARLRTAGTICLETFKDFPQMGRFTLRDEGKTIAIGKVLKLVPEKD
T1 sequence (Q96SW2 whole entry, further chain): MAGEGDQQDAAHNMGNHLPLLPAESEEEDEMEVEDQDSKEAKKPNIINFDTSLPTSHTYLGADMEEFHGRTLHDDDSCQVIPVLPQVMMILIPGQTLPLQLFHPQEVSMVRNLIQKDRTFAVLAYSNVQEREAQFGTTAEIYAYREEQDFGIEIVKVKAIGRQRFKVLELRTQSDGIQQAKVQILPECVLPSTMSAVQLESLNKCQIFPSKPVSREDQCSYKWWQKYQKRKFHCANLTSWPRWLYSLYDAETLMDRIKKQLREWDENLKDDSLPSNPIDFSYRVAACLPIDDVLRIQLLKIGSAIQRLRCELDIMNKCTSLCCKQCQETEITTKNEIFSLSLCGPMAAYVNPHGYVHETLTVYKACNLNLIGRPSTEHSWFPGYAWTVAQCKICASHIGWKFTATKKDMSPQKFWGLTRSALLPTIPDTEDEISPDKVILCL
T1 sequence (Q16531 whole entry partner): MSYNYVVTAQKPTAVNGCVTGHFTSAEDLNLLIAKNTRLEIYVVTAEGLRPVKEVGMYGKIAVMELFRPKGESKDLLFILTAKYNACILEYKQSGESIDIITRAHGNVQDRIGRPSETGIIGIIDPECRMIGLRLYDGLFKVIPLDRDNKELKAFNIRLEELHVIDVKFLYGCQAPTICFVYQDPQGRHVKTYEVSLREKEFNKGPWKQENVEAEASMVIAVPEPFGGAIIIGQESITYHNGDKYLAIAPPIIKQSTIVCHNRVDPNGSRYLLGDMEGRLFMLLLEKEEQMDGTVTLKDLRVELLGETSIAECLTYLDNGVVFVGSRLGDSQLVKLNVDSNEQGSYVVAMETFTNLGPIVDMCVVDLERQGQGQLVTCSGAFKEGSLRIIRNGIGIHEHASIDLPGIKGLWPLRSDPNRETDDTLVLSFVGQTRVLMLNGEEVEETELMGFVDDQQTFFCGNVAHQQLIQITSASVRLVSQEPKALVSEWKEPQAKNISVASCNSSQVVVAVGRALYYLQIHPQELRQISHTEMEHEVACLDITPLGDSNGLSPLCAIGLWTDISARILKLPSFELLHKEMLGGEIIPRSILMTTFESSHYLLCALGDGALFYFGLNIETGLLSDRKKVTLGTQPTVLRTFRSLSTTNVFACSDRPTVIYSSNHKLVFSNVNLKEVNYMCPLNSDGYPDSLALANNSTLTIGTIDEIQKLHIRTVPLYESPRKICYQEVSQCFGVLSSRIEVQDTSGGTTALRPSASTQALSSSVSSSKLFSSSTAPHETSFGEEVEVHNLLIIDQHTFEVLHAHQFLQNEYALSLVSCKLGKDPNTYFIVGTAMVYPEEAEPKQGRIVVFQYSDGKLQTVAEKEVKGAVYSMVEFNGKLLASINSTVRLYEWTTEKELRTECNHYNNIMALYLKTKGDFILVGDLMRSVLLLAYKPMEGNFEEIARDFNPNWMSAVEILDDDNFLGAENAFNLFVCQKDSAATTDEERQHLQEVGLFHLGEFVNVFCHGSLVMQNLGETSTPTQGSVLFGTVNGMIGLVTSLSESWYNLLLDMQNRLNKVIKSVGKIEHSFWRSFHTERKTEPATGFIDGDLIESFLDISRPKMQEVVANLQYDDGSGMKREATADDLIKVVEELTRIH

remaining activity at 0.1 µM (GSPT1) [%] | remaining activity at 1 µM (GSPT1) [%] | SMILES | viability at 1 µM (MDA-MB-231 cells) [%] | viability at 10 µM (MDA-MB-231 cells) [%] | inhibition at 0.1 µM (IL-1β) [%] | viability at 1 µM (H1048 cells) [%] | viability at 10 µM (H1048 cells) [%] | cytotoxicity at 0.1 µM (Molm-13 cells) [%] | inhibition at 0.1 µM (TNF-α) [%] | inhibition at 0.1 µM (IL-6) [%] | inhibition at 1 µM (IL-1β; compound concentration 1 μM) [%] | cytotoxicity at 1 µM (Molm-13 cells; compound concentration 1 μM) [%] | inhibition at 1 µM (TNF-α; compound concentration 1 μM) [%] | inhibition at 1 µM (IL-6; compound concentration 1 μM) [%]
0.64 | 2.61 | Cc1ccc(NC(=O)NCc2scc3c2CN(C2CCC(=O)NC2=O)C3=O)cc1C(C)C (centres unmarked) [Compound 47, 1-((5-(2,6-Dioxopiperidin-3-yl)-4-oxo-5,6-dihydro-4H-thieno[3,4-c]pyrrol-1-yl)methyl)-3-(3-isopropyl-4-methylphenyl)urea] | 21.8 | 19.3 | 99 | 8.91 | 8.58 | 100 | 97 | 100 |  |  |  | 
1.46 | 3.85 | Cc1c(Cl)cc(NC(=O)NCc2scc3c2CN(C2CCC(=O)NC2=O)C3=O)cc1C(C)C (centres unmarked) [Compound 48, 1-(3-Chloro-5-isopropyl-4-methylphenyl)-3-((5-(2,6-dioxopiperidin-3-yl)-4-oxo-5,6-dihydro-4H-thieno[3,4-c]pyrrol-1-yl)methyl)urea] | 22.2 | 21.7 | 96 | 9.03 | 6.89 | 100 | 92 | 100 |  |  |  | 
11.9 | 20 | Cc1cc(C)c(NC(=O)NCc2scc3c2CN(C2CCC(=O)NC2=O)C3=O)cc1Cl (centres unmarked) [Compound 49, 1-(5-Chloro-2,4-dimethylphenyl)-3-((5-(2,6-dioxopiperidin-3-yl)-4-oxo-5,6-dihydro-4H-thieno[3,4-c]pyrrol-1-yl)methyl)urea] | 24.3 | 19.7 | 61 | 7.67 | 6.1 | 100 | 62 | 87 |  |  |  | 
0.58 | 1.05 | Cc1ccc(NC(=S)NCc2scc3c2CN(C2CCC(=O)NC2=O)C3=O)cc1Cl (centres unmarked) [Compound 52, 1-(3-Chloro-4-methylphenyl)-3-((5-(2,6-dioxopiperidin-3-yl)-4-oxo-5,6-dihydro-4H-thieno[3,4-c]pyrrol-1-yl)methyl)thiourea] | 22.4 | 20.5 | 98 | 9.22 | 10.3 | 99 | 95 | 100 |  |  |  | 
23.5 | 6.18 | Cc1ccc(NC(=O)NCc2scc3c2CN(C2CCC(=O)NC2=O)C3=O)cn1 (centres unmarked) [Compound 53, 1-((5-(2,6-Dioxopiperidin-3-yl)-4-oxo-5,6-dihydro-4H-thieno[3,4-c]pyrrol-1-yl)methyl)-3-(6-methylpyridin-3-yl)urea] | 27.6 | 21.3 | 60 | 8.51 | 8.09 | 100 | 65 | 90 |  |  |  | 
2.25 | 2.72 | Cc1ccc(NC(=O)NCc2scc3c2CN(C2CCC(=O)NC2=O)C3=O)cc1C(F)(F)F (centres unmarked) [Compound 54, 1-((5-(2,6-Dioxopiperidin-3-yl)-4-oxo-5,6-dihydro-4H-thieno[3,4-c]pyrrol-1-yl)methyl)-3-(4-methyl-3-(trifluoromethyl)phenyl)urea] | 22.6 | 22.4 | 96 | 8.11 | 6.12 | 100 | 93 | 100 |  |  |  | 
1.51 | 2.86 | O=C1CCC(N2Cc3c(csc3CNC(=O)Nc3ccc(C(F)(F)F)c(Cl)c3)C2=O)C(=O)N1 (centres unmarked) [Compound 55, 1-(3-chloro-4-(trifluoromethyl)phenyl)-3-((5-(2,6-dioxopiperidin-3-yl)-4-oxo-5,6-dihydro-4H-thieno[3,4-c]pyrrol-1-yl)methyl)urea] | 20.2 | 19 | 99 | 7.63 | 7.94 | 100 | 96 | 100 |  |  |  | 
265 | 28.4 | Cc1ccc(NC(=O)NCc2scc3c2CN([C@H]2CCCC(=O)NC2=O)C3=O)nc1Cl [Compound 57, (S)-1-(6-Chloro-5-methylpyridin-2-yl)-3-((5-(2,7-dioxoazepan-3-yl)-4-oxo-5,6-dihydro-4H-thieno[3,4-c]pyrrol-1-yl)methyl)urea] | 107 | 52 |  | 12.4 | 8.7 |  |  |  | 42 | 45 | 44 | 32
